pIC50: −log10 of the molar value.
Biological target: human Nav1.8 (Homo sapiens (Human), UniProt Q9Y5Y9)
Assay: Nav1.8 Qube automated patch-clamp assay
Format: cell-based
Conditions: Nav1.8 Qube Assay; human Nav1.8 channels stably expressed in HEK 293 cells
Procedure: Qube® Assay Experimental Procedure
Compounds were tested on human Nav1.8 and Nav1.5 channels stably expressed in human embryo kidney (HEK) 293 cells. Sodium current measurements on Qube® were conducted as follows: automated 384-well patch-clamp assays on the Qube® platform (Sophion Biosciences) were used to measure the inhibition of sodium flow through human Nav1.8 and Nav1.5 channels. Whole-cell voltage-clamp recordings were performed in QChips® (Sophion Biosciences) at room temperature. Nav1.8 current measurements on Qube® were obtained as follows: Nav1.8 currents were elicited with a 10 second 1 Hertz (Hz) pulse train from a holding potential of −90 millivolts (mV), delivered to the cells once per minute in the control condition (DMSO only) and after compound addition. The 1 hertz pulse train stimulation consisted of ten test pulses to 10 millivolt (mV) for 20 milliseconds (ms), each of which was followed by a 980 millisecond repolarization to −67 millivolts. At the end of the 10 second pulse train stimulation, a 5 second hyperpolarization step to −100 millivolt (mV) was used to recover Nav1.8 from fast inactivation. The peak currents elicited by the 1st and 10th test pulses were used to determine IC50 values for resting inhibition and inactivated state inhibition. Nav1.5 current measurements on Qube® were obtained as follows: Nav1.5 currents were elicited with a 20 second 3 Hertz pulse train in the control condition (DMSO only) and after compound addition. The pulse train consisted of sixty 20 millisecond test pulses to 0 millivolt from a holding potential of −80 millivolt (mV). The average peak currents elicited by the last 3 test pulses were used to determine IC50 values for Nav1.5 inhibition.
The following buffers were used for the Qube® recordings: External buffer for Nav1.8 Qube® recording: 150 NaCl, 2 CaCl2, 5 KCl, 1 Mg Cl2, 10 HEPES, 12 Dextrose; External buffer for Qube® Nav1.5 recording: 120 N-Methyl-D-Glucamine, 40 NaCl, 1 KCl, 2.7 CaCl2, 5 HEPES, 0.5 MgCl2; and Internal buffer for Qube® recording: 120 CsF, 30 CsCl, 10 EGTA, 5 HEPES, 5 NaF, 2 MgCl2.
For all Qube® experiments offline analysis was used to determine percent inhibition as a function of drug concentration. IC50 values were determined by fitting to the Hill equation.

human Nav1.8, sequence (Q9Y5Y9 whole entry): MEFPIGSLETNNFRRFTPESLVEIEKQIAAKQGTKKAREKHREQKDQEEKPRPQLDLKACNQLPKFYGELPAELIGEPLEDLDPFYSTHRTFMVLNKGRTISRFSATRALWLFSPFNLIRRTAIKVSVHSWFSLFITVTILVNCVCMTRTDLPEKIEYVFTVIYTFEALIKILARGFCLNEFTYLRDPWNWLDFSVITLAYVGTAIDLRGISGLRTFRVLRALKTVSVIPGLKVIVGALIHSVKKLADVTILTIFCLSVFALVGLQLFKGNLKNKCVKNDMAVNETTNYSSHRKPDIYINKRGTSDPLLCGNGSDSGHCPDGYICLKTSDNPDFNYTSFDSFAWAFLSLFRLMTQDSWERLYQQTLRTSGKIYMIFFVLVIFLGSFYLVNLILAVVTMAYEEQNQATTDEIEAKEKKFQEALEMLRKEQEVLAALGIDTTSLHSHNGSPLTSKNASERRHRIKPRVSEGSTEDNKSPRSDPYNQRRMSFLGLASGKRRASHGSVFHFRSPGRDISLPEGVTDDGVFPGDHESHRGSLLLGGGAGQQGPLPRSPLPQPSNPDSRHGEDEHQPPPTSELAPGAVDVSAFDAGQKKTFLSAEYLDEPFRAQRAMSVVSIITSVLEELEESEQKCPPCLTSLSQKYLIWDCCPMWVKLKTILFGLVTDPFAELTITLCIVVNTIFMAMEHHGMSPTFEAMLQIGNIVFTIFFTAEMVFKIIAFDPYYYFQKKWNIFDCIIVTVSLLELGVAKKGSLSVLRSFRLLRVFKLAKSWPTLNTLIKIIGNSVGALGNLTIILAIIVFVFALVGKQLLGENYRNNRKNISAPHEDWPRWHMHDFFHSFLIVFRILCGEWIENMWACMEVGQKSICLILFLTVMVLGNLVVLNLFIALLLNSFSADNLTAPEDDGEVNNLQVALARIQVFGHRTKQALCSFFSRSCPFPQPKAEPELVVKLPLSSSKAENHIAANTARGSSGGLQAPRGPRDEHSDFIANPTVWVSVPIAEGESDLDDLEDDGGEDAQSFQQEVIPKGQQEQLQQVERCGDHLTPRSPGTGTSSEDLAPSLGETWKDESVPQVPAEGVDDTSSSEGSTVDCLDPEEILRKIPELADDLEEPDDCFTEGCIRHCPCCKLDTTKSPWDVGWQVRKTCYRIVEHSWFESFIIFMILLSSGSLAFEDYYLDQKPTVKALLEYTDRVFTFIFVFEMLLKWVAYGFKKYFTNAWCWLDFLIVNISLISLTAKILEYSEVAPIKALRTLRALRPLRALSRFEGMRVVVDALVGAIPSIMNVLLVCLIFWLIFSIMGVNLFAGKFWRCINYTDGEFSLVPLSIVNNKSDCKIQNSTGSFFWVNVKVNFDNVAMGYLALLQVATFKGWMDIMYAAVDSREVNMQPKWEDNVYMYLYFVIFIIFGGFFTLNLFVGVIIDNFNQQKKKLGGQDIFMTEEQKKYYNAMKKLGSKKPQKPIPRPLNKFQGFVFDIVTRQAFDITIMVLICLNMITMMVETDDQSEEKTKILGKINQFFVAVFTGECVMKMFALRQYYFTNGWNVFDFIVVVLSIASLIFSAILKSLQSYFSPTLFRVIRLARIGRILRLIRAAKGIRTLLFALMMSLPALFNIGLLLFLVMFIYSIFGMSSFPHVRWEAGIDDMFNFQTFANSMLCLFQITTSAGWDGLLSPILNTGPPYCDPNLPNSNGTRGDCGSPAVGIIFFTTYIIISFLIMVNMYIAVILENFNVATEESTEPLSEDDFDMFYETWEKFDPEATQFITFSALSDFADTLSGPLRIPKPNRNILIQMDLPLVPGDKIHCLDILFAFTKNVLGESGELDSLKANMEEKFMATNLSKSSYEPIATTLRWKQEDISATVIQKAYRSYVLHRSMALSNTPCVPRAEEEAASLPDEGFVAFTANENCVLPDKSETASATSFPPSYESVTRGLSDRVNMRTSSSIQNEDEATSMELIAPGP

In order of rising pIC50:
1. NS(=O)(=O)c1cccc(NC(=O)c2cc(C(F)(F)F)cnc2N2CCS(=O)(=O)CC2)c1 [Example 70, 2-(1,1-dioxo-1,4-thiazinan-4-yl)-N-(3-sulfamoylphenyl)-5-(trifluoromethyl)pyridine-3-carboxamide]  5.26
2. COC1CCN(c2ncc(C(F)(F)F)cc2C(=O)Nc2cccc(S(N)(=O)=O)c2)CC1 [Example 66, 2-(4-methoxy-1-piperidyl)-N-(3-sulfamoylphenyl)-5-(trifluoromethyl) pyridine-3-carboxamide]  5.58
3. COC(=O)C1CCN(c2ncc(C(F)(F)F)cc2C(=O)Nc2cccc(S(N)(=O)=O)c2)CC1 [Example 61, methyl 1-[3-[(3-sulfamoylphenyl)carbamoyl]-5-(trifluoro-methyl)-2-pyridyl]-piperidine-4-carboxylate]  5.79
4. Cc1nc(N2CCCC(F)(F)CC2)c(C(=O)N(C)c2cccc(S(N)(=O)=O)c2)c(C)c1Cl [Example 179, 5-chloro-2-(4,4-difluoroazepan-1-yl)-N,4,6-trimethyl-N-(3-sulfamoylphenyl)nicotinamide]  6.06
5. NC(=O)c1cccc(NC(=O)c2cc(C(F)(F)F)cnc2N2CCC3(CC3)C(F)(F)C2)c1 [Example 109, N-(3-carbamoylphenyl)-2-(8,8-difluoro-6-aza-spiro[2.5]octan-6-yl)-5-(trifluoro-methyl)-pyridine-3-carboxamide]  6.07
6. Cc1nc(N2CCCCC2)c(C(=O)Nc2cccc(C(N)=O)c2)c(C)c1Cl [Example 19, N-(3-carbamoyl-phenyl)-5-chloro-4,6-dimethyl-2-(1-piperidyl)pyridine-3-carboxamide]  6.53
7. NC(=O)c1cccc(NC(=O)c2cc(C(F)(F)F)cnc2N2CC3CCC(F)(F)C3C2)c1 (centres unmarked) [Example 108, N-(3-carbamoylphenyl)-2-(4,4-difluoro-1,3,3a,- 5,6,6a-hexahydrocyclo-penta[c]pyrrol-2-yl)-5-(trifluoromethyl)-pyridine-3-carboxamide]  6.83
8. NS(=O)(=O)c1cc(NC(=O)c2cc(C(F)(F)F)cnc2N2CCC(F)(F)CC2)cc(F)c1F [Example 171, N-(3,4-difluoro-5-sulfamoylphenyl)-2-(4,4-difluoropiperidin-1-yl)-5-(trifluoro-methyl)nicotinamide]  6.86
9. NS(=O)(=O)c1cccc(NC(=O)c2cc(C(F)(F)F)cnc2N2CCC(F)(F)CC2)c1F [Example 170, 2-(4,4-difluoropiperidin-1-yl)-N-(2-fluoro-3-sulfamoylphenyl)-5-(trifluoromethyl)nicotinamide]  6.92
10. NS(=O)(=O)c1cccc(NC(=O)c2cc(C(F)(F)F)cnc2N2CC3CC(F)(F)C3C2)c1 (single isomer, unassigned) [Example 136, 2-[(1R,5S or 1S,5R)-6,6-difluoro-3-azabicyclo[3.2.0]heptan-3-yl]-N-(3-sulfamoyl-phenyl)-5-(trifluoromethyl)-pyridine-3-carboxamide]  7.06
11. NC(=O)c1cccc(NC(=O)c2cc(C(F)(F)C(F)(F)F)cnc2N2CCCCCC2)c1 [Example 167, 2-(azepan-1-yl)-N-(3-carbamoylphenyl)-5-(1,1,2,2,2-penta-fluoroethyl)pyridine-3-carboxamide]  7.07
12. CC12CCN(c3ncc(C(F)(F)F)cc3C(=O)Nc3cccc(S(N)(=O)=O)c3)CC1C2(F)F (single isomer, unassigned) [Example 129, 2-[(1S,6S or 1R,6R)-7,7-difluoro-6-methyl-3-azabicyclo[4.1.0]heptan-3-yl]-N-(3-sulfamoyl-phenyl)-5-(trifluoro-methyl)pyridine-3-carboxamide]  7.20
13. NS(=O)(=O)c1cccc(NC(=O)c2cc(F)c(Cl)nc2N2CCCCCC2)c1 [Example 92, 2-(azepan-1-yl)-6-chloro-5-fluoro-N-(3-sulfamoylphenyl)-pyridine-3-carboxamide]  7.51
14. Cc1cc(Cl)nc(N2CCCC(F)(F)CC2)c1C(=O)Nc1cccc(C(N)=O)c1 [Example 17, N-(3-carbamoyl-phenyl)-6-chloro-2-(4,4-difluoroazepan-1-yl)-4-methyl-pyridine-3-carboxamide]  7.54
15. C[C@@H]1CN(c2ncc(C(F)(F)F)cc2C(=O)Nc2cccc(S(N)(=O)=O)c2)C[C@@H](C(F)(F)F)O1 [Example 146, 2-[(2R,6S)-2-methyl-6-(trifluoromethyl)morpholin-4-yl]-N-(3-sulfamoylphenyl)-5-(trifluoromethyl) pyridine-3-carboxamide]  7.59
16. NS(=O)(=O)c1cccc(NC(=O)c2cc(C(F)(F)F)cnc2N2C[C@H]3CC[C@H]3C2)c1 [Example 134, 2-((1R,5S)-3-azabicyclo[3.2.0]heptan-3-yl]-N-(3-sulfamoyl-phenyl)-5-(trifluoro-methyl)-pyridine-3-carboxamide]  7.60
17. NS(=O)(=O)c1cccc(NC(=O)c2cc(Br)cnc2N2CCCCCC2)c1 [Example 32, 2-(azepan-1-yl)-5-bromo-N-(3-sulfamoyl-phenyl)pyridine-3-carboxamide]  7.62
18. NS(=O)(=O)c1cccc(NC(=O)c2cc(Cl)cnc2N2CCCCCC2)c1 [Example 31, 2-(azepan-1-yl)-5-chloro-N-(3-sulfamoyl-phenyl)pyridine-3-carboxamide]  7.66
19. NC(=O)c1cccc(NC(=O)c2cc(Cl)cnc2N2CCCC(F)(F)CC2)c1 [Example 15, N-(3-carbamoyl-phenyl)-5-chloro-2-(4,4-difluoroazepan-1-yl)pyridine-3-carboxamide]  7.72
20. NS(=O)(=O)c1cccc(NC(=O)c2ccc(Cl)nc2N2CCCCCC2)c1 [Example 89, 2-(azepan-1-yl)-6-chloro-N-(3-sulfamoyl-phenyl)pyridine-3-carboxamide]  7.80
21. NS(=O)(=O)c1cccc(NC(=O)c2cc(C(F)(F)F)cnc2N2CCCC3(C2)CC3(F)F)c1 (single isomer, unassigned) [Example 126, 2-[(3S or 3R)-2,2-difluoro-5-azaspiro[2.5]-octan-5-yl]-N-(3-sulfamoylphenyl)-5-(trifluoromethyl)-pyridine-3-carboxamide]  7.85
22. NS(=O)(=O)c1cccc(NC(=O)c2cc(OC(F)F)cnc2N2CCCC(F)(F)CC2)c1 [Example 172, 2-(4,4-difluoroazepan-1-yl)-5-(difluoromethoxy)-N-(3-sulfamoylphenyl)nicotinamide]  8.12
23. Cc1nc(N2CCCC(F)(F)CC2)c(C(=O)Nc2cccc(S(C)(=O)=O)c2)cc1C#N [Example 176, 5-cyano-2-(4,4-difluoroazepan-1-yl)-6-methyl-N-(3-methyl-sulfonylphenyl) pyridine-3-carboxamide]  8.14
24. Cc1c(Cl)nc(N2CCCCCC2)c(C(=O)Nc2cccc(S(N)(=O)=O)c2)c1C [Example 174, 2-(azepan-1-yl)-6-chloro-4,5-dimethyl-N-(3-sulfamoylphenyl)-pyridine-3-carboxamide]  8.22
25. NS(=O)(=O)c1cccc(NC(=O)c2cc(C(F)(F)F)cnc2N2CCCCCCC2)c1 [Example 88, 2-(azocan-1-yl)-N-(3-sulfamoylphenyl)-5-(trifluoromethyl)-pyridine-3-carboxamide]  8.22
26. C[C@@H]1CN(c2ncc(C(F)(F)F)cc2C(=O)Nc2cccc(S(N)(=O)=O)c2)C[C@H](C)C1(F)F [Example 125, 2-[(3S,5R)-4,4-difluoro-3,5-dimethyl-1-piperidyl]-N-(3-sulfamoylphenyl)-5-(trifluoromethyl)-pyridine-3-carboxamide]  8.62

Reference: US12344595B2, “2-amino-n-phenyl-nicotinamides as NAV1.8 inhibitors” (Merck Sharp & Dohme LLC, priority 2018, dated 2025)
